Results taken from ChEMBL document CHEMBL1158712, “Acetylated aporphine alkaloids from Lysichiton camtschatcense” (J Nat Prod, 2005).

Assays:
[1] = system: Radical scavenging activity; assay: Antioxidant activity assessed as DPPH radical scavenging activity after 48 hrs; type: functional
[2] = system: Radical scavenging activity; assay: Antioxidant activity assessed as DPPH radical scavenging activity after 30 mins; type: functional

| SMILES | IC50 [1] [µM] | Activity [2] [%] |
| --- | --- | --- |
| CC(=O)O[C@H]1c2ccccc2-c2c3c(cc4c2[C@@H]1N(C(C)=O)CC4)OCO3 | 518 | < 10 |
| COc1cc2c3c(c1OC)-c1ccccc1[C@H](OC(C)=O)[C@H]3N(C(C)=O)CC2 | 362 | < 10 |
